Results reported in ChEMBL document CHEMBL5233217, “Modification of 7-piperazinylquinolone antibacterials to promising anticancer lead compounds: Synthesis and in vitro studies” (Eur J Med Chem, 2020).
Each block holds one molecule with its values, some of them ahead of it.

Columns and labels:
HL-60 [1] = test: Antiproliferative activity against human HL-60 cells assessed as reduction in cell viability; assay type: functional, cell-based
L1210 [2] = test: Antiproliferative activity against mouse L1210 cells assessed as reduction in cell viability; assay type: functional, cell-based
Hep 3B2 = test: Antiproliferative activity against human Hep3B cells assessed as reduction in cell viability; assay type: functional, cell-based
SMMC-7721 [3] = test: Antiproliferative activity against human SMMC-7721 cells assessed as reduction in cell viability; assay type: functional, cell-based
CAPAN-1 [4] = test: Antiproliferative activity against human CAPAN-1 cells assessed as reduction in cell viability; assay type: functional, cell-based
HL-60 [5] = test: Anticancer activity against human HL-60 cells assessed as reduction in cell viability incubated for 24 hrs by MTT assay; assay type: functional, cell-based; details: HL-60, 24 h
HL-60 [6] = test: Anticancer activity against human HL-60 cells assessed as reduction in cell viability incubated for 48 hrs by MTT assay; assay type: functional, cell-based; details: HL-60, 48 h
L1210 [7] = test: Anticancer activity against mouse L1210 cells assessed as reduction in cell viability by MTT assay; assay type: functional, cell-based
HOP-92 = test: Anticancer activity against human HOP-92 cells assessed as cell growth inhibition by sulforhodamine B assay; assay type: functional
SK-MEL-5 = test: Anticancer activity against human SK-MEL-5 cells assessed as cell growth inhibition by sulforhodamine B assay; assay type: functional
UACC-257 = test: Anticancer activity against human UACC-257 cells assessed as cell growth inhibition by sulforhodamine B assay; assay type: functional
SK-MEL-2 = test: Anticancer activity against human SK-MEL-2 cells assessed as cell growth inhibition by sulforhodamine B assay; assay type: functional
LOX IMVI = test: Anticancer activity against human LOX IMVI cells assessed as cell growth inhibition by sulforhodamine B assay; assay type: functional
HepG2 = test: Antitumor activity against human HepG2 cells assessed as reduction in cell viability incubated for 72 hrs by MTT assay; assay type: functional, cell-based; details: HepG2, 72 h
PC-3 = test: Antitumor activity against human PC-3 cells assessed as reduction in cell viability incubated for 72 hrs by MTT assay; assay type: functional, cell-based; details: PC-3, 72 h
HeLa = test: Antitumor activity against human HeLa cells assessed as reduction in cell viability incubated for 72 hrs by MTT assay; assay type: functional, cell-based
MCF7 [8] = test: Antitumor activity against human MCF7 cells assessed as reduction in cell viability incubated for 72 hrs by MTT assay; assay type: functional, cell-based; details: MCF7, 72 h
A549 [9] = test: Antitumor activity against human A549 cells assessed as reduction in cell viability incubated for 72 hrs by MTT assay; assay type: functional, cell-based; details: A549, 72 h
A549 [10] = test: Anticancer activity against human A549 cells assessed as reduction in cell viability by MTT assay; assay type: functional, cell-based
HL-60 [11] = test: Antiproliferative activity against human HL-60 cells assessed as reduction in cell viability incubated for 48 hrs by MTT assay; assay type: functional, cell-based; details: HL-60, 48 h
L1210 [12] = test: Antiproliferative activity against mouse L1210 cells assessed as reduction in cell viability incubated for 48 hrs by MTT assay; assay type: functional, cell-based; details: L1210, 48 h
A2780 = test: Anticancer activity against human cisplatin resistant A2780 cells assessed as reduction in cell viability by MTT assay; assay type: functional, cell-based
SW48 = test: Anticancer activity against human SW48 cells assessed as reduction in cell viability by MTT assay; assay type: functional, cell-based
SMMC-7721 [13] = test: Antiproliferative activity against human SMMC-7721 cells assessed as reduction in cell viability incubated for 24 hrs by MTT assay; assay type: functional, cell-based; details: SMMC-7721, 24 h
HL-60 [14] = test: Cytotoxicity against human HL-60 cells assessed as reduction in cell viability by MTT assay; assay type: functional, cell-based
[15] = Cytotoxicity against Chinese hamster CHO cells assessed as reduction in cell viability by MTT assay; assay type: toxicity, cell-based, Cricetulus griseus
CAPAN-1 [16] = test: Antiproliferative activity against human CAPAN-1 cells assessed as reduction in cell viability incubated for 24 to 72 hrs by MTT assay; assay type: functional, cell-based
PANC-1 = test: Antiproliferative activity against human PANC-1 cells assessed as reduction in cell viability incubated for 24 to 72 hrs by MTT assay; assay type: functional, cell-based
MCF7 [17] = test: Antiproliferative activity against human MCF7 cells assessed as reduction in cell viability incubated for 24 hrs by MTT assay; assay type: functional, cell-based; details: MCF7, 24 h
HCT-8 = test: Antiproliferative activity against human HCT-8 cells assessed as reduction in cell viability incubated for 24 hrs by MTT assay; assay type: functional, cell-based; details: HCT-8, 24 h

SMILES: CCn1cc(-c2nnc(SCc3nnc(-c4ccc(F)cc4)o3)[nH]2)c(=O)c2cc(F)c(N3CCN(C)CC3)cc21
IC50 (HL-60 [1]): 3800 nM
IC50 (L1210 [2]): 3800 nM
IC50 (Hep 3B2): 3800 nM
IC50 (SMMC-7721 [3]): 3800 nM
IC50 (CAPAN-1 [4]): 3800 nM

SMILES: COc1ccc2cc3[n+](cc2c1OC(=O)c1cn(C2CC2)c2cc(N4CCNCC4)c(F)cc2c1=O)CCc1cc2c(cc1-3)OCO2
IC50 (HL-60 [5]): 19.3 µM
IC50 (HL-60 [6]): 15.7 µM

SMILES: C[C@H]1COc2c(N3CCN(C)CC3)c(F)cc3c(=O)c(C(=O)NCc4cn(CCCCCCC(=O)NO)nn4)cn1c23
IC50 (HepG2): 300 nM
IC50 (PC-3): 300 nM
IC50 (HeLa): 300 nM
IC50 (MCF7 [8]): 300 nM
IC50 (A549 [9]): 300 nM

SMILES: O=c1c(-c2nn3c(-c4cn(C5CC5)c5cc(N6CCNCC6)c(F)cc5c4=O)nnc3s2)cn(C2CC2)c2cc(N3CCNCC3)c(F)cc12
IC50 (HL-60 [11]): 540 nM
IC50 (L1210 [12]): 3.6 µM

SMILES: C[C@H]1COc2c(Nc3ccc(-n4c(=O)[nH][nH]c4=O)cc3)c(F)cc3c(=O)c(C(=O)O)cn1c23
IC50 (A2780): ≤ 43 µM
IC50 (SW48): ≤ 43 µM

SMILES: C[C@H]1COc2c(N3CCN(C)CC3)c(F)cc3c(=O)c(-c4nnc(S)o4)cn1c23
IC50 (SMMC-7721 [13]): > 50000 nM
IC50 (HL-60 [14]): > 50 µM
IC50 [15]: > 50 µM

SMILES: CN1CCN(c2cc3c(cc2F)c(=O)c(/C=C2\CN(C4CC4)c4cc(N5CCNCC5)c(F)cc4C2=O)cn3C2CC2)CC1
IC50 (CAPAN-1 [16]): 1600 nM
IC50 (PANC-1): 3.1 µM

Further lines, with some results ahead:

IC50 (L1210 [7]): 1400 nM
SMILES: O=c1c(-c2nnc3n2N=C(c2ccc(O)c(O)c2)CS3)cn(C2CC2)c2cc(N3CCNCC3)c(F)cc12

GI50 (SK-MEL-5): < 10 µM
GI50 (SK-MEL-2): < 10 µM
SMILES: COc1ncnc(NS(=O)(=O)c2ccc(/N=C3\C(=O)N(CN4CCN(c5c(F)cc6c(=O)c(C(=O)O)cn(C7CC7)c6c5OC)CC4C)c4ccc(Br)cc43)cc2)c1OC (stereo unspecified)
GI50 (HOP-92): 176 nM
GI50 (UACC-257): < 10 µM
GI50 (LOX IMVI): < 10 µM

IC50 (A549 [10]): 34.5 µM
SMILES: C[C@H]1COc2c(Nn3c(=O)[nH][nH]c3=O)c(F)cc3c(=O)c(C(=O)O)cn1c23

IC50 (HL-60 [1]): 1500 nM
IC50 (L1210 [2]): 1500 nM
IC50 (SMMC-7721 [3]): 1500 nM
SMILES: CCn1cc(-c2nc(SCc3nnc(-c4ccc(F)cc4)o3)n(CN(C)C)n2)c(=O)c2cc(F)c(N3CCN(C)CC3)cc21
IC50 (Hep 3B2): 1500 nM
IC50 (CAPAN-1 [4]): 1500 nM

IC50 (SMMC-7721 [13]): 2900 nM
IC50 (MCF7 [17]): 2900 nM
IC50 (HCT-8): 2900 nM
SMILES: O=C(N/N=C/c1ccc2c(c1)OCO2)c1cn(C2CC2)c2cc(N3CCNCC3)c(F)cc2c1=O
